Experimental data: US5399743A, “Dipeptide derivative and prophylactic or therapeutic agent for bone diseases containing same as active ingredient” (Suntory Limited, priority 1992, dated 1995)
Entries after “also recorded” stand apart in the source; their conditions may differ.

Legend:
[1] = tested on: Rat Hypercalcemia Induced by PTHrp(1-34); assay: Rat hypercalcemia induced by PTHrp(1-34), oral administration; assay type: in vivo, Wistar rats
Excerpt: (§1) The active ingredient of the present invention normalizes the blood calcium concentration in rat hypercalcemia induced by PTHrp(1-34). PTHrp (parathyroid hormone-related protein) is a protein identified as the factor inducing hypercalcemia in humans. The fragment comprised of the 1 to 34th amino acid residues, that is, PTHrp(1-34), is the active type. The PTHrp(1-34) promotes bone resorption in vitro and induces hypercalcemia if administered to rats.
(§2) Using this model, the compound of the present invention was administered to Wistar rats, then PTHrp(1-34) was administered and the blood calcium concentration was measured after one hour after administration. […] That is, the compound of the present invention suppresses hypercalcemia induced by PTHrp(1-34), so is useful as a prophylactic or therapeutic agent for bone diseases.
(§3) To Wistar rats (5 weeks old, male, 90 to 110 g, 5 animals in each group), 40 mg/kg body weight of the compounds listed in Table 1 were administered orally. Four hours later, 5 nmole/kg of PTHrp(1-34) was intravenously injected. One hour after the administration of PTHrp(1-34), a blood sample was collected from each animal and the blood calcium concentration was measured by the octocresolphthalein complexone method.
Note that for reference, a similar evaluation was made of L-trans-epoxysuccinyl-L-leucineamide (e-guanide)-butane (E-64) Japanese Unexamined Patent Publication (Kokai) No. 63-284127 and the Z-Phe-Ala-CH2 F described in Japanese Examined Patent Publication (Kokoku) No. 4-1737.

[2] = tested on: Rat Hypercalcemia Induced by PTHrp(1-34); assay: Rat hypercalcemia induced by PTHrp(1-34), subcutaneous administration; assay type: in vivo, Wistar rats; conditions: 40 mg/kg subcutaneously at the back; 2 h later PTHrp(1-34) 5 nmole/kg i.v.; blood 1 h after PTHrp; n = 5; PTHrp-only group 11.28 ± 0.08, untreated 10.68 ± 0.09
Excerpt: as §1, §2
as §3, with “In the same way as Example 7, to” for “To”, “subcutaneously at the back. Two” for “orally. Four”

[3] = tested on: rats; assay: Acute toxicity LD50 after oral administration to rats; assay type: in vivo; conditions: in 20 hours
Protocol: The compound of the present invention is a low molecular weight dipeptide derivative, so the toxicity is low. For example, the acute toxicity LD50 of the compound 1 shown in Table 1 in 20 hours after oral administration to rats is over 1 g/kg.

[4] = 40 mg/kg orally; 4 h later PTHrp(1-34) 5 nmole/kg i.v.; blood 1 h after PTHrp; n = 5; PTHrp-only group 11.87 ± 0.14, untreated 11.42 ± 0.14

| Structure (SMILES) | Ca conc. ± standard error (average blood calcium concentration) [1, 4] [mg/dL] | effect on rise in blood calcium concentration (in words) ([1]; oral administration, 40 mg/kg, vs group treated with PTHrp(1-34) only) | Ca conc. ± standard error (average blood calcium concentration) [2] [mg/dL] | acute toxicity LD50 [3] | effect on rise in blood calcium concentration (in words) ([1]; oral administration, 40 mg/kg, vs group treated with PTHrp(1-34) only; 40 mg/kg) |
| --- | --- | --- | --- | --- | --- |
| CC(C)C[C@H](NC(=O)[C@H]1O[C@@H]1C(=O)O)C(=O)NCCCCN=C(N)N (relative stereo) [Example E-64, L-trans-epoxysuccinyl-L-leucineamide (e-guanide)-butane] | 11.09 ± 0.14 | significantly suppressed the rise in the blood calcium concentration | 10.20 ± 0.09 | – | – |
| CCCCC(NC(=O)C(CC(C)C)NC(C)=O)C(=O)CF (stereo not drawn) [Ac-Leu-Nle-CH2 F, 3-(N-acetyl-leucylamide)-1-fluoro-2-heptanone] | 10.49 ± 0.09 | – | 10.13 ± 0.11 | – | – |
| CCCCC(NC(=O)C(CC(C)C)NC(=O)OCc1ccccc1)C(=O)CF (stereo not drawn) [Z-Leu-Nle-CH2 F, 3-(N-benzyloxycarbonyl-leucylamide)-1-fluoro-2-heptanone] | 11.09 ± 0.14 | – | – | over 1 g/kg | – |
| CC(NC(=O)C(Cc1ccccc1)NC(=O)OCc1ccccc1)C(=O)CF (stereo not drawn) [Z-Phe-Ala-CH2 F, 3-(N-benzyloxycarbonylphenylalanylamide)-1-fluoro-2-butanone] | 12.02 ± 0.20 | – | – | – | did not exhibit an activity; also recorded: did not exhibit any action of normalizing the calcium concentration |
